System: MV4-11 cells
Assay: Cell proliferation assay MV4;11 (CellTiter-Glo, 72 hours)
Format: cell-based
Details: Homo sapiens; MV4;11 leukemia cell line, 72 hours; read-out: MV4; 11 IC50
How it was run: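 Luminescent CellTiter-Glo readout after 72 h culture, 37 °C, 5% CO2, expressed relative to vehicle-treated wells, with maximal inhibition taken at the highest dose. MLL-rearranged MV4-11 leukemia cells; final compound range 0.632 to 2000 nM in eight steps.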

## CC(C)N(CC(F)(F)F)C(=O)c1cc(F)ccc1Oc1cncnc1N1CC2(CCN(C[C@@H]3CC[C@@H](NS(=O)(=O)N(C)C)CO3)CC2)C1 [Example 107, 2-((4-(7-(((2S,5R)-5-((N,N-Dimethylsulfamoyl)amino)tetrahydro-2H-pyran-2-yl)methyl)-2,7-diazaspiro[3.5]nonan-2-yl)pyrimidin-5-yl)oxy)-5-fluoro-N-isopropyl-N-(2,2,2-trifluoroethyl)benzamide]
  IC50: < 100 nM

## CC(C)N(CC(F)(F)F)C(=O)c1cc(F)ccc1Oc1cncnc1N1CC2(CCN(C[C@@H]3CC[C@@H](NS(=O)(=O)N4CCOCC4)CO3)CC2)C1 [Example 108, 5-Fluoro-N-isopropyl-2-((4-(7-(((2S,5R)-5-(morpholine-4-sulfonamido)tetrahydro-2H-pyran-2-yl)methyl)-2,7-diazaspiro[3.5]nonan-2-yl)pyrimidin-5-yl)oxy)-N-(2,2,2-trifluoroethyl)benzamide]
  IC50: < 100 nM

## CC(C)N(CC(F)(F)F)C(=O)c1cc(F)ccc1Oc1cncnc1N1CC2(CCN(C[C@@H]3CC[C@@H](NS(=O)(=O)C(C)C)CO3)CC2)C1 [Example 109, 5-Fluoro-N-isopropyl-2-((4-(7-(((2S,5R)-5-((1-methylethyl)sulfonamido)tetrahydro-2H-pyran-2-yl)methyl)-2,7-diazaspiro[3.5]nonan-2-yl)pyrimidin-5-yl)oxy)-N-(2,2,2-trifluoroethyl)benzamide]
  IC50: < 100 nM

## CC(C)N(C(=O)c1cc(F)ccc1Oc1cncnc1N1CC2(CCN(C[C@@H]3CC[C@@H](NS(=O)(=O)C(C)C)CO3)CC2)C1)C1CC(F)(F)C1 [Example 110, N-(3,3-Difluorocyclobutyl)-5-fluoro-N-isopropyl-2-((4-(7-(((2S,5R)-5-((1-methylethyl)sulfonamido)tetrahydro-2H-pyran-2-yl)methyl)-2,7-diazaspiro[3.5]nonan-2-yl)pyrimidin-5-yl)oxy)benzamide]
  IC50: < 100 nM

## CC(C)N(C(=O)c1cc(F)ccc1Oc1cncnc1N1CC2(CCN(C[C@@H]3CC[C@@H](NS(=O)(=O)C4CC4)CO3)CC2)C1)C1CC(F)(F)C1 [Example 111, 2-((4-(7-(((2S,5R)-5-(Cyclopropanesulfonamido)tetrahydro-2H-pyran-2-yl)methyl)-2,7-diazaspiro[3.5]nonan-2-yl)pyrimidin-5-yl)oxy)-N-(3,3-difluorocyclobutyl)-5-fluoro-N-isopropylbenzamide]
  IC50: < 100 nM

## CC(C)N(C(=O)c1cc(F)ccc1Oc1cncnc1N1CC2(CCN(C[C@@H]3CC[C@@H](NS(=O)(=O)N(C)C)CO3)CC2)C1)C1CC(F)(F)C1 [Example 113, N-(3,3-Difluorocyclobutyl)-2-((4-(7-(((2S,5R)-5-((N,N-dimethylsulfamoyl)amino)tetrahydro-2H-pyran-2-yl)methyl)-2,7-diazaspiro[3.5]nonan-2-yl)pyrimidin-5-yl)oxy)-5-fluoro-N-isopropylbenzamide]
  IC50: < 100 nM

## CCN(CC)S(=O)(=O)N[C@@H]1CC[C@@H](CN2CCC3(CC2)CN(c2ncncc2Oc2ccc(F)cc2C(=O)N(C(C)C)C2CC(F)(F)C2)C3)OC1 [Example 114, 2-((4-(7-(((2S,5R)-5-((N,N-Diethylsulfamoyl)amino)tetrahydro-2H-pyran-2-yl)methyl)-2,7-diazaspiro[3.5]nonan-2-yl)pyrimidin-5-yl)oxy)-N-(3,3-difluorocyclobutyl)-5-fluoro-N-isopropylbenzamide]
  IC50: < 100 nM

## CC(C)N(C(=O)c1cc(F)ccc1Oc1cncnc1N1CC2(CCN(C[C@@H]3CC[C@@H](NS(=O)(=O)C4COC4)CO3)CC2)C1)C1CC(F)(F)C1 [Example 115, N-(3,3-Difluorocyclobutyl)-5-fluoro-N-isopropyl-2-((4-(7-(((2S,5R)-5-(oxetane-3-sulfonamido)tetrahydro-2H-pyran-2-yl)methyl)-2,7-diazaspiro[3.5]nonan-2-yl)pyrimidin-5-yl)oxy)benzamide]
  IC50: < 100 nM

## CC(C)N(C(=O)c1cc(F)ccc1Oc1cncnc1N1CC2(CCN(C[C@@H]3CC[C@@H](NS(=O)(=O)N4CCOCC4)CO3)CC2)C1)C1CC(F)(F)C1 [Example 116, N-(3,3-Difluorocyclobutyl)-5-fluoro-N-isopropyl-2-((4-(7-(((2S,5R)-5-(morpholine-4-sulfonamido)tetrahydro-2H-pyran-2-yl)methyl)-2,7-diazaspiro[3.5]nonan-2-yl)pyrimidin-5-yl)oxy)benzamide]
  IC50: < 100 nM

## CC(C)N(C(=O)c1cc(F)ccc1Oc1cncnc1N1CC2(CCN(C[C@@H]3CC[C@@H](NS(N)(=O)=O)CO3)CC2)C1)C1CC(F)(F)C1 [Example 117, N-(3,3-Difluorocyclobutyl)-5-fluoro-N-isopropyl-2-((4-(7-(((2S,5R)-5-(sulfamoylamino)tetrahydro-2H-pyran-2-yl)methyl)-2,7-diazaspiro[3.5]nonan-2-yl)pyrimidin-5-yl)oxy)benzamide]
  IC50: < 100 nM

## CC(C)N(C(=O)c1cc(F)ccc1Oc1cncnc1N1CC2(CCN(C[C@@H]3CC[C@@H](NS(=O)(=O)N4CCC4)CO3)CC2)C1)C1CC(F)(F)C1 [Example 118, 2-((4-(7-(((2S,5R)-5-(Azetidine-1-sulfonamido)tetrahydro-2H-pyran-2-yl)methyl)-2,7-diazaspiro[3.5]nonan-2-yl)pyrimidin-5-yl)oxy)-N-(3,3-difluorocyclobutyl)-5-fluoro-N-isopropylbenzamide]
  IC50: < 100 nM

## CC(C)N(C(=O)c1cc(F)ccc1Oc1cncnc1N1CC2(CCN(C[C@@H]3CC[C@@H](NS(=O)(=O)N(C)C(C)C)CO3)CC2)C1)C1CC(F)(F)C1 [Example 119, N-(3,3-Difluorocyclobutyl)-5-fluoro-N-isopropyl-2-((4-(7-(((2S,5R)-5-((N-isopropyl-N-methylsulfamoyl)amino)tetrahydro-2H-pyran-2-yl)methyl)-2,7-diazaspiro[3.5]nonan-2-yl)pyrimidin-5-yl)oxy)benzamide]
  IC50: < 100 nM

## C[C@@H]1COC[C@@H](C)N1C(=O)c1cc(F)ccc1Oc1cncnc1N1CC2(CCN(C[C@@H]3CC[C@@H](NS(=O)(=O)c4ccccc4)CO3)CC2)C1 [Example 120, N-((3R,6S)-6-((2-(5-(2-((3R,5R)-3,5-Dimethylmorpholine-4-carbonyl)-4-fluorophenoxy)pyrimidin-4-yl)-2,7-diazaspiro[3.5]nonan-7-yl)methyl)tetrahydro-2H-pyran-3-yl)benzenesulfonamide]
  IC50: < 100 nM

## C[C@@H]1COC[C@@H](C)N1C(=O)c1cc(F)ccc1Oc1cncnc1N1CC2(CCN(C[C@@H]3CC[C@@H](NS(=O)(=O)N4CCC4)CO3)CC2)C1 [Example 121, N-((3R,6S)-6-((2-(5-(2-((3R,5R)-3,5-Dimethylmorpholine-4-carbonyl)-4-fluorophenoxy)pyrimidin-4-yl)-2,7-diazaspiro[3.5]nonan-7-yl)methyl)tetrahydro-2H-pyran-3-yl)azetidine-1-sulfonamide]
  IC50: < 100 nM

## Cc1nc(S(=O)(=O)N[C@@H]2CC[C@@H](CN3CCC4(CC3)CN(c3ncncc3Oc3ccc(F)cc3C(=O)N3[C@H](C)COC[C@H]3C)C4)OC2)cs1 [Example 122, N-((3R,6S)-6-((2-(5-(2-((3R,5R)-3,5-Dimethylmorpholine-4-carbonyl)-4-fluorophenoxy)pyrimidin-4-yl)-2,7-diazaspiro[3.5]nonan-7-yl)methyl)tetrahydro-2H-pyran-3-yl)-2-methylthiazole-4-sulfonamide]
  IC50: < 100 nM

## C[C@@H]1COC[C@@H](C)N1C(=O)c1cc(F)ccc1Oc1cncnc1N1CC2(CCN(C[C@@H]3CC[C@@H](NS(=O)(=O)N(C)C)CO3)CC2)C1 [Example 123, {[(3R,6S)-6-{[2-(5-{2-[(3R,5R)-3,5-Dimethylmorpholine-4-carbonyl]-4-fluorophenoxy}pyrimidin-4-yl)-2,7-diazaspiro[3.5]nonan-7-yl]methyl}oxan-3-yl]sulfamoyl}dimethylamine]
  IC50: < 100 nM

## C[C@@H]1COC[C@@H](C)N1C(=O)c1cc(F)ccc1Oc1cncnc1N1CC2(CCN(C[C@@H]3CC[C@@H](NS(=O)(=O)N4CCCC4)CO3)CC2)C1 [Example 124, N-((3R,6S)-6-((2-(5-(2-((3R,5R)-3,5-Dimethylmorpholine-4-carbonyl)-4-fluorophenoxy)pyrimidin-4-yl)-2,7-diazaspiro[3.5]nonan-7-yl)methyl)tetrahydro-2H-pyran-3-yl)pyrrolidine-1-sulfonamide]
  IC50: < 100 nM

## CCNS(=O)(=O)N[C@@H]1CC[C@@H](CN2CCC3(CC2)CN(c2ncncc2Oc2ccc(F)cc2C(=O)N2[C@H](C)COC[C@H]2C)C3)OC1 [Example 125, {[(3R,6S)-6-{[2-(5-{2-[(3R,5R)-3,5-Dimethylmorpholine-4-carbonyl]-4-fluorophenoxy}pyrimidin-4-yl)-2,7-diazaspiro[3.5]nonan-7-yl]methyl}oxan-3-yl]sulfamoyl}(ethyl)amine]
  IC50: < 100 nM

## C[C@@H]1COC[C@@H](C)N1C(=O)c1cc(F)ccc1Oc1cncnc1N1CC2(CCN(C[C@@H]3CC[C@@H](NS(=O)(=O)c4cnn(C)c4)CO3)CC2)C1 [Example 126, N-((3R,6S)-6-((2-(5-(2-((3R,5R)-3,5-Dimethylmorpholine-4-carbonyl)-4-fluorophenoxy)pyrimidin-4-yl)-2,7-diazaspiro[3.5]nonan-7-yl)methyl)tetrahydro-2H-pyran-3-yl)-1-methyl-1H-pyrazole-4-sulfonamide]
  IC50: < 100 nM

## C[C@@H]1COC[C@@H](C)N1C(=O)c1cc(F)ccc1Oc1cncnc1N1CC2(CCN(C[C@@H]3CC[C@@H](NS(=O)(=O)c4ccn(C)n4)CO3)CC2)C1 [Example 127, N-((3R,6S)-6-((2-(5-(2-((3R,5R)-3,5-Dimethylmorpholine-4-carbonyl)-4-fluorophenoxy)pyrimidin-4-yl)-2,7-diazaspiro[3.5]nonan-7-yl)methyl)tetrahydro-2H-pyran-3-yl)-1-methyl-1H-pyrazole-3-sulfonamide]
  IC50: < 100 nM

## CCN(C)S(=O)(=O)N[C@@H]1CC[C@@H](CN2CCC3(CC2)CN(c2ncncc2Oc2ccc(F)cc2C(=O)N2[C@H](C)COC[C@H]2C)C3)OC1 [Example 128, {[(3R,6S)-6-{[2-(5-{2-[(3R,5R)-3,5-Dimethylmorpholine-4-carbonyl]-4-fluorophenoxy}pyrimidin-4-yl)-2,7-diazaspiro[3.5]nonan-7-yl]methyl}oxan-3-yl]sulfamoyl}(ethyl)methylamine]
  IC50: < 100 nM

— patent publication US11919901B2 (Syndax Pharmaceuticals, Inc., priority 2021, dated 2024)
